How the values were obtained:
[1] = Binding affinity to HIV-1 mRNA assessed as dissociation constant; parameters: species or system Human immunodeficiency virus 1
[2] = test system: Human immunodeficiency virus 1; assay: Antiviral activity against HIV-1; assay type: functional, organism-based
[3] = Downregulation of alpha-Synuclein level in human SH-SY5Y cells at 1 uM relative to control; assay type: functional
[4] = Binding affinity to telomeric RNA (unknown origin) assessed as dissociation constant
[5] = Effect on tau protein expression in human SH-SY5Y cells; assay type: functional, cell-based
[6] = test system: Escherichia coli; assay: Antibacterial activity against Escherichia coli MB5746; assay type: functional, organism-based
[7] = test system: Escherichia coli; assay: In vivo antibacterial activity against Escherichia coli MB5746 infected in DBA/2J mouse assessed as log 10 reduction in CFU in spleen at 120 mg/kg, sc administered every 3 hrs for 24 hrs (reference value: 9.53 log10 CFU); assay type: functional
[8] = test system: Escherichia coli; assay: In vivo antibacterial activity against Escherichia coli MB5746 infected in DBA/2J mouse assessed as log 10 reduction in CFU in spleen at 60 mg/kg, sc administered every 3 hrs for 24 hrs (reference value: 9.53 log10 CFU); assay type: functional
[9] = Binding affinity to Precursor microRNA-515 (unknown origin) assessed as dissociation constant
[10] = molecular target: T1, Microtubule-associated protein tau (Homo sapiens, UniProt P10636); assay: Binding affinity to tau (unknown origin)
T1 sequence (P10636 whole entry): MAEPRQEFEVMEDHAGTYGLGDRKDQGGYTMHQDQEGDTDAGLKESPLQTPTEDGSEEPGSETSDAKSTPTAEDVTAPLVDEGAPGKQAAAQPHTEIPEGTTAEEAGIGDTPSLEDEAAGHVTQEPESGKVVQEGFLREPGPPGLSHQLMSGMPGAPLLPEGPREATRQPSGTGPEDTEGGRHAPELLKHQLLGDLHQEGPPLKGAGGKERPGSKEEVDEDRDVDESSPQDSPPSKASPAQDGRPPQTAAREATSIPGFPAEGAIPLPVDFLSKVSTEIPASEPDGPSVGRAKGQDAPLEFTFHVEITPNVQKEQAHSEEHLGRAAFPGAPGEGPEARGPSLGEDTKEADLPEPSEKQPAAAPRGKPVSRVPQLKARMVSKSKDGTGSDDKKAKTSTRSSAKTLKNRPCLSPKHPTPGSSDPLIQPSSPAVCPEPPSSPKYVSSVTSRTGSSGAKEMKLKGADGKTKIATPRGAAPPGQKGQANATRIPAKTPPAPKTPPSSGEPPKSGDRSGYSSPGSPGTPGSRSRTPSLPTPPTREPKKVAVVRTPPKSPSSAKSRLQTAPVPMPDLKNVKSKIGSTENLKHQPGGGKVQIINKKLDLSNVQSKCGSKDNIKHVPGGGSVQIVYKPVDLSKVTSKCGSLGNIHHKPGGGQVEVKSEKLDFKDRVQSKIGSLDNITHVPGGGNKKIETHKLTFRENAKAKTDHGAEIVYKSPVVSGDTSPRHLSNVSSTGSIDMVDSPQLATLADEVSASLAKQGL

[11] = molecular target: Microtubule-associated protein tau (Rattus norvegicus) (UniProt P19332); assay: Inhibition of tau in rat Primary cortical neuron cell assessed as reduction in 4R/3R ratio; assay type: cell-based; details: concentration not given here
Chain of Microtubule-associated protein tau (Rattus norvegicus) (P19332 whole entry): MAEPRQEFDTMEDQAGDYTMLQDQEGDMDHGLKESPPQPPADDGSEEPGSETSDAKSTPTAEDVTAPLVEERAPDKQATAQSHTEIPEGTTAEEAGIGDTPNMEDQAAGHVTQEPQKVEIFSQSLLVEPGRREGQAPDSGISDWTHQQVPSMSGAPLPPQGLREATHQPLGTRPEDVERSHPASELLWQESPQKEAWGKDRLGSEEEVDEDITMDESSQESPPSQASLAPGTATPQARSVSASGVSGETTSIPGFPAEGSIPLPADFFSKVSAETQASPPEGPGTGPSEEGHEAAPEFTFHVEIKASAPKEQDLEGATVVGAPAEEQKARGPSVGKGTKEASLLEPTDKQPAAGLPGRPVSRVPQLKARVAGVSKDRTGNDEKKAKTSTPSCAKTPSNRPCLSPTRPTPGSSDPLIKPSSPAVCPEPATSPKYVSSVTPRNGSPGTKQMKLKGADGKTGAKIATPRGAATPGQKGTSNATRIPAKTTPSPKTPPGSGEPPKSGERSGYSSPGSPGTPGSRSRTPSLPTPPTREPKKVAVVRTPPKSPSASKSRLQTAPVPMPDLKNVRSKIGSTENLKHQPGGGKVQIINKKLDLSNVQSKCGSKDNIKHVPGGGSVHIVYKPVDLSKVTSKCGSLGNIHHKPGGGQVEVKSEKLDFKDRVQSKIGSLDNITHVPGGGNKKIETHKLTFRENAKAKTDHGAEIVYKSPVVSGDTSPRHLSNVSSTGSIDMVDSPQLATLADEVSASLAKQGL

[12] = molecular target: T1, Microtubule-associated protein tau; assay: Inhibition of tau in human LA-N-5 cells assessed as reduction in 4R/3R ratio; assay type: cell-based; details: concentration not given here
[13] = molecular target: T1, Microtubule-associated protein tau; assay: Inhibition of tau (unknown origin)
[14] = Binding affinity to r(CCUG)12 (unknown origin) assessed as dissociation constant
[15] = Inhibition of r(CCUG)12-MBNL1 (unknown origin) by gel electrophoretic mobility shift assay; parameters: species or system Homo sapiens
[16] = molecular target: T2, Muscleblind-like protein 1 (Homo sapiens, UniProt Q9NR56); assay: Binding affinity to MBNL1 (unknown origin) assessed as dissociation constant
T2 sequence (Q9NR56 whole entry): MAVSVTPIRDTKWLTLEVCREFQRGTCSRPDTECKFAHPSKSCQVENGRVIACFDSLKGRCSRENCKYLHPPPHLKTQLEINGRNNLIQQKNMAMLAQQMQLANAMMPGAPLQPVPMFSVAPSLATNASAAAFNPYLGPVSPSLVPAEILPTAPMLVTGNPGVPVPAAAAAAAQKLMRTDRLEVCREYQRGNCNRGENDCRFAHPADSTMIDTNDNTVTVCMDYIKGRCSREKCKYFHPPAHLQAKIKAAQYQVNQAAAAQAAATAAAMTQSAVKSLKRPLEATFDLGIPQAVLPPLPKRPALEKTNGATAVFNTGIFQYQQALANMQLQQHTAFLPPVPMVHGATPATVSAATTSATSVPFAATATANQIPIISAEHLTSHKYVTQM

[17] = test system: MDA-MB-231; assay: Inhibition of Precursor microRNA-210 in human MDA-MB-231 cells at 200 nM relative to control; assay type: cell-based
[18] = Binding affinity to Precursor microRNA-210 (unknown origin) assessed as dissociation constant
[19] = test system: MCF7; assay: Induction of apoptosis in human MCF7 cells at 100 uM; assay type: functional
[20] = test system: U-251; assay: Induction of apoptosis in human U-251 cells at 100 uM; assay type: functional
[21] = test system: Human immunodeficiency virus 1; assay: Antiviral activity against HIV-1 infected in human T cell line assessed as inhibition of DNA replication; assay type: functional, organism-based; details: Human immunodeficiency virus 1, T-cell
[22] = test system: HeLa; assay: Cytotoxicity against human HeLa cells; assay type: functional

For `CC(=O)Nc1nc(CC(=O)c2cccc(NC(=O)[C@@H](N)CCCCNC(=N)N)c2)cs1`, the Kd [1] was 110 nM and the IC50 [2] was 410 nM.
`N=C(N)c1ccc(Nc2ccc(-c3cc4ccc(C(=N)N)cc4[nH]3)cc2)cc1` showed an Activity [3] of 67%.
`O=c1c2cc(-c3ccco3)sc2nc2n1Cc1nc3sc(-c4ccco4)cc3c(=O)n1C2` showed a Kd [4] of 5900 nM.
`N=C(N)NC[C@H]1O[C@H](O[C@@H]2[C@@H](OCCSSCCNCCNc3ccc(NCCNCCO)c4c3C(=O)c3ccccc3C4=O)[C@H](O)[C@@H](NC(=N)N)C[C@H]2NC(=N)N)[C@H](NC(=N)N)[C@@H](O)[C@@H]1O` showed an EC50 [5] of 57.2 nM.
Work on `CNc1ncc(CN2CCCC(c3nc(O)cc(-c4cccs4)n3)C2)cn1` (configuration not stated) yielded an IC50 [6] of 300 nM, an Activity [7] of 6.24 log10CFU/g and an Activity [8] of 7.76 log10CFU/g.
With `CCCN(CC(=O)N(CCC)CC(=O)N(CCC)CC(=O)N(CCC)CC(=O)N(CC(N)=O)Cc1cn(CCCNC(=O)CCCOc2c(C(C)(C)C)cc(-c3nc4ccc(-c5ccc(N6CCN(C)CC6)cc5)cc4[nH]3)cc2C(C)(C)C)nn1)C(=O)CNCc1cn(CCCNC(=O)CCCOc2c(C(C)(C)C)cc(-c3nc4ccc(-c5ccc(N6CCN(C)CC6)cc5)cc4[nH]3)cc2C(C)(C)C)nn1` the Kd [9] was 60 nM.
For `COc1ccc2[nH]c3c(c2c1)N=CN(CCCN(C)C1CCCCC1)C3`, the Kd [10] was 4900 nM, the inhibition [11] was 50% and the inhibition [12] was 40%. For the same molecule, the IC50 [13] was 2100 nM.
Molecule `N=C(NCCCCNc1nc(N)nc(N)n1)c1ccc(C(=N)NCCCCNc2nc(N)nc(N)n2)cc1` has a Kd [14] of 8000 nM, an IC50 [15] of 115000 nM and a Kd [16] of over 200000 nM.
Molecule `CN1CCN(c2ccc3nc(-c4ccc(OCCCC(=O)NCCCOCC(O)COP(=O)(O)O[C@@H]5[C@H](O)[C@@H](COP(=O)(O)O[C@@H]6[C@H](O)[C@@H](COP(=O)(O)O[C@@H]7[C@H](O)[C@@H](COP(=O)(O)O[C@@H]8[C@H](O)[C@@H](COP(=O)(O)O)O[C@H]8n8cnc9c(N)ncnc98)O[C@H]7n7cnc8c(N)ncnc87)O[C@H]6n6cnc7c(N)ncnc76)O[C@H]5n5cnc6c(N)ncnc65)cc4)[nH]c3c2)CC1` (some centres not stated) has an inhibition [17] of 50% and a Kd [18] of 340 nM.
`NC(=O)c1ncn2c(=O)n(NC(=O)c3nc4c(N)cccc4[nH]3)nnc12` gave an Activity [19] of 30% and an Activity [20] of 30%.
For `O=C1c2c(O)ccc(O)c2C(=O)c2c(NCCNCCO)ccc(NCCNCCO)c21` [MITOXANTRONE], the IC50 [21] was 23100 nM and the Activity [22] was 1 µM.

— ChEMBL document CHEMBL5226309, “Synthetic RNA Modulators in Drug Discovery” (J Med Chem, 2021)
